{"source": "paper PMC11842588", "about": "“A first-in-class selective inhibitor of ERK1/2 and ERK5 overcomes drug resistance with a single-molecule strategy” (Signal Transduction and Targeted Therapy, 2025)", "key": {"Ki-67": {"tested_on": "Ki-67", "assay": "IHC of Ki-67 in xenograft tumor tissue", "assay_type": "in vivo, nude mice (BALB/c-nu)", "details": "50 mg/kg", "protocol": "All procedures were performed in accordance with the Laboratory Animals Welfare Act, the Guide for the Care and Use of Laboratory Animals and the Guidelines and Policies. The rodent experiment was approved by IACUC (Institutional Animal Care and Use Committee) in the Experimental Animal Ethics Committee of West China Hospital (Approval No. 2021672A). 48 female nude mice (BALB/c-nu, 5 weeks, 15–18 g, purchased from Beijing HFK Bio-Technology Co., LTD) were acclimatized for one week in an SPF-grade animal facility (ventilated, 20–25 °C, 50–60% humidity). […] When the tumor volume reached approximately 100 mm^3 (V = L × W^2/2), the mice were randomly divided into six groups (n = 8 per group): (1) Control group (normal saline); (2) 25 mg/kg SKLB-D18-treated group; (3) 50 mg/kg SKLB-D18-treated group; (4) 50 mg/kg BVD-523-treated group; (5) 50 mg/kg XMD8-92-treated group; (6) BVD-523 (50 mg/kg) and XMD8-92 (50 mg/kg) combined treatment group. Drugs were freshly prepared with 5% DMSO, 10% Solutol HS-15, and 85% normal saline on the day of administration. […] And the body weight and tumor volume of mice were measured every three days. […]\nBriefly, tumor tissues were dehydrated, embedded, and sectioned. […] Microscopic analysis and imaging were performed, analyzed with ImageJ, and statistical graphs were created using GraphPad Prism 9.5. […]"}, "ERK2 [1]": {"target": "T1, ERK2 (Homo sapiens, UniProt P28482)", "T1 sequence (P28482 whole entry)": "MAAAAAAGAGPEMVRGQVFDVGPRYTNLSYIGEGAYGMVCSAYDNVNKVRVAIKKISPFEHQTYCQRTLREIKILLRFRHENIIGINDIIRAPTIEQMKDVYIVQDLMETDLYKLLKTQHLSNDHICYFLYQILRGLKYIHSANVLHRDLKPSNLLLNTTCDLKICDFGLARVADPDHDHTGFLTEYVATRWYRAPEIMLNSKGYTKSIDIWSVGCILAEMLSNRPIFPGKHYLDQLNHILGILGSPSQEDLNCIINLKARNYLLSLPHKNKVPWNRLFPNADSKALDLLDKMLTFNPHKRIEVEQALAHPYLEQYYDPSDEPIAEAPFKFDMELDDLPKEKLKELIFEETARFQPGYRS", "assay": "Isothermal titration calorimetry (ITC) assay", "assay_type": "binding", "details": "25 °C", "protocol": "(§1) The full-length human ERK1 or ERK2 with His-tag was cloned into a pET28a vector. hERK1/2 were expressed in Escherichia coli BL21(DE3), and then were purified using sequential Ni-NTA and Superdex 200 column steps. The SEC purified sample was then concentrated to 10 mg/ml and stored at −80 °C with buffer containing 20 mM HEPES pH 7.5, 150 mM NaCl. ERK5 (residues 48–395) containing His and GST tags was cloned into the pFastBac vector, and the recombinant plasmid was extracted. The recombinant plasmid was transformed into the DH10bac strain, and monoclonal was selected for culture. The recombinant Bacmid was then extracted according to the instructions of the Baculovirus Shuttle Vector Bacmid Mini Preparation Kit (Beyotime) and validated by PCR. 1 × 10^6/well Sf9 cells were counted for transfection and then amplified to obtain P3 ERK5 recombinant baculovirus. It was added to 2 × 10^6/mL Sf9 cells and incubated at 27 °C for 72 h on a shaker to express ERK5. Cells were lysed and supernatant was collected on a Ni-NTA for purification, and a 250 mM imidazole eluate was collected. […]\n(§2) Calorimetric experiments were carried on an Affinity ITC (Waters, Shanghai) with 1 mM SKLB-D18 and 0.1 mM ERK1/2/5. […] The data were analyzed with the NanoAnalyze software employing a single binding site model. […]"}, "ERK1 [2]": {"target": "T2, ERK1 (Homo sapiens, UniProt P27361)", "T2 sequence (P27361 whole entry)": "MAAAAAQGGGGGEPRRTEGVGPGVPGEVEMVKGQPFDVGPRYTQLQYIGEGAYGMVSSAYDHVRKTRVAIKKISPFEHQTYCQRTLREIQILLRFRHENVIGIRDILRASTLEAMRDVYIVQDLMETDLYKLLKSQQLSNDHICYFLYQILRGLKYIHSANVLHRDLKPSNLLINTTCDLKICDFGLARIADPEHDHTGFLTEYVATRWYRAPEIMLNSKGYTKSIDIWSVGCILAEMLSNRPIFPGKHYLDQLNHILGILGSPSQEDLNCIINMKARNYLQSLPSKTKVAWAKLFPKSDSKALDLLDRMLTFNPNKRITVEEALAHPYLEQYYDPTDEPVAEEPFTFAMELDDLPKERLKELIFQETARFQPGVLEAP", "assay": "Isothermal titration calorimetry (ITC) assay", "assay_type": "binding", "details": "25 °C", "protocol": "as §1, §2"}, "[3]": {"assay": "Plasma protein binding rate (ultrafiltration)", "assay_type": "in vitro ADME", "details": "SD rat plasma", "protocol": "Appropriate amount of SD rat plasma was taken and incubated with the specified concentration of compound at 37 °C for a specified time, and unbound compound solution was obtained by ultrafiltration method, and acetonitrile-containing internal standard compound was added to terminate the reaction, and the remaining compound was quantized by LC-MS to calculate the plasma protein binding rate. Calculation formula: Plasma protein binding rate (%) = (Total blood−Ultrafiltrate)/Total blood * 100%."}, "ERK5 [4]": {"target": "T3, ERK5 (Homo sapiens, UniProt Q13164)", "assay": "Isothermal titration calorimetry (ITC) assay", "assay_type": "binding", "set-up": "ERK5 (residues 48–395) containing His and GST tags was cloned into the pFastBac vector; His (cleaved yes); GST (cleaved yes); made in house; host or cells: Sf9 insect cells (baculovirus)", "details": "25 °C", "protocol": "as §1, §2"}, "ERK2 [5]": {"target": "T1, ERK2", "assay": "ADP-Glo kinase assay", "assay_type": "biochemical", "protocol": "(§3) The full-length human ERK1 or ERK2 with His-tag was cloned into a pET28a vector. hERK1/2 were expressed in Escherichia coli BL21(DE3), and then were purified using sequential Ni-NTA and Superdex 200 column steps. The SEC purified sample was then concentrated to 10 mg/ml and stored at −80 °C with buffer containing 20 mM HEPES pH 7.5, 150 mM NaCl. ERK5 (residues 48–395) containing His and GST tags was cloned into the pFastBac vector, and the recombinant plasmid was extracted. The recombinant plasmid was transformed into the DH10bac strain, and monoclonal was selected for culture. The recombinant Bacmid was then extracted according to the instructions of the Baculovirus Shuttle Vector Bacmid Mini Preparation Kit (Beyotime) and validated by PCR. 1 × 10^6/well Sf9 cells were counted for transfection and then amplified to obtain P3 ERK5 recombinant baculovirus. It was added to 2 × 10^6/mL Sf9 cells and incubated at 27 °C for 72 h on a shaker to express ERK5. Cells were lysed and supernatant was collected on a Ni-NTA for purification, and a 250 mM imidazole eluate was collected. Next, digestion by TEV protease was performed overnight while dialysis was performed in approximately 1000 mL of imidazole-free buffer. The digested ERK5 protein was sequentially purified on the Ni-NTA and GST-tag Purification Resin, followed by size exclusion chromatography on a Superdex 75 column. ERK5 protein was collected and concentrated to 12 mg/ml and stored at −80 °C in buffer containing 50 mM HEPES pH 8.0, 200 mM NaCl, 10% (v/v) glycerol.\n(§4) ERK1/2/5 kinase activity assay was conducted using ADP-Glo™ Kinase Assay. 2× ATP solution and 2× kinase & Metal solution were prepared using assay buffer were prepared using assay buffer containing 50 mM Hepes pH 7.5, 10 mM MgCl2; 0.01% Brij35, 1 mM EGTA, 2 mM DTT. Transfer 40 nL compounds to 384 assay plate. Add 2 μL of 2× kinase & Metal solution were mixed and incubated in a 384-assay plate for 10 min at 25 °C. 2 μL of 2×ATP solution was added and incubated at 25 °C for 60 min. And then, each well was supplemented with 4 µL of ADP-Glo^TM reagent and incubated at 25 °C for 40 min. Subsequently, 8 µL of Kinase Detection Reagent was added and incubated at 25 °C for 40 min. Finally, the luminescence signals were recorded. The IC50 values were calculated using GraphPad Prism 9.5 software."}, "ERK1 [6]": {"target": "T2, ERK1", "assay": "ADP-Glo kinase assay", "assay_type": "biochemical", "protocol": "as §3, §4"}, "ERK5 [7]": {"target": "T3, ERK5", "assay": "ADP-Glo kinase assay", "assay_type": "biochemical", "protocol": "as §3, §4"}}}
{"compound": "CN(C)Cc1cccc(Nc2ncc(Cl)c(-c3csc(C(=O)NN4CCOCC4)c3)n2)c1", "note": "[SKLB-D18, 4-(5-chloro-2-((3-((dimethylamino)methyl)phenyl)amino)pyrimidin-4-yl)-N-morpholinothiophene-2-carboxamide]", "values": [{"measurement": "Ki-67 positive area", "setting": "Ki-67", "result": "less than 20%"}, {"measurement": "Kd", "setting": "ERK2 [1]", "result": 210, "unit": "nM"}, {"measurement": "Kd", "setting": "ERK1 [2]", "result": 127, "unit": "nM"}, {"measurement": "fraction unbound", "setting": "[3]", "result": 0.816}, {"measurement": "Kd", "setting": "ERK5 [4]", "result": 468, "unit": "nM"}, {"measurement": "IC50", "setting": "ERK2 [5]; ADP-Glo", "result": "40.1 ± 0.95", "unit": "nM"}, {"measurement": "inhibition at 0.5 µM", "setting": "ERK2 [5]; read-out: Enzyme inhibitory activity (500 nM, %) ERK2", "result": "93.2 ± 1.45", "unit": "%"}, {"measurement": "IC50", "setting": "ERK1 [6]; ADP-Glo", "result": "38.7 ± 0.62", "unit": "nM"}, {"measurement": "inhibition at 0.5 µM", "setting": "ERK1 [6]; read-out: Enzyme inhibitory activity (500 nM, %) ERK1", "result": "95.62 ± 0.84", "unit": "%"}, {"measurement": "IC50", "setting": "ERK5 [7]; ADP-Glo", "result": "59.7 ± 1.21", "unit": "nM"}, {"measurement": "inhibition at 0.5 µM", "setting": "ERK5 [7]; read-out: Enzyme inhibitory activity (500 nM, %) ERK5", "result": "93.1 ± 1.03", "unit": "%"}]}
